{
  "source": "paper PMC4661905",
  "about": "“A Mechanism of O-Demethylation of Aristolochic Acid I by Cytochromes P450 and Their Contributions to This Reaction in Human and Rat Livers: Experimental and Theoretical Approaches” (International Journal of Molecular Sciences, 2015)",
  "key": {"[1]": {"system": "CYP enzymes of liver microsomes that oxidise (demethylate) AAI to AAIa", "experiment": "Effect of CYP inhibitors on AAI oxidation to AAIa by human liver microsomes", "format": "in vitro ADME", "conditions": "pH 7.4, probe AAI (10 μM), inhibitor 10 μM equimolar to AAI (10 μM), 0.1 nmol CYP, mean ± SD, n = 3, NI = no inhibition, read-out: AAIa Formation (% of Control without Inhibitor) Human Microsomes", "method": "(§1) Incubation mixtures (250 μL) contained 100 mM potassium phosphate buffer (pH 7.4), 1 mM NADPH, 1 mg human or rat liver microsomal protein and 10 μM AAI [30, 43]. […] Control incubations were performed (i) without microsomal proteins; (ii) without NADPH; or (iii) without AAI. […] For Supersomes™, incubation mixtures (final volume 250 μL) consisted of 100 mM potassium phosphate buffer (pH 7.4), 1 mM NADP^+, 10 mM MgCl2, 10 mM D-glucose 6-phosphate, 1 U/mL D-glucose 6-phosphate dehydrogenase (NADPH-generating system), 50 nM CYPs in Supersomes™, and 10 μM AAI. Supersomes™ with POR alone were utilized as controls. AAI and its metabolites (i.e., AAIa) were extracted from incubation mixtures with 2 × 1 mL of ethyl acetate and evaporated to dryness; residues were dissolved in 30 μL of methanol and analyzed with reverse-phase HPLC as described.\n(§2) Compounds were dissolved in 2.5 μL methanol (except for DDTC that was dissolved in distilled water) to yield final concentrations of 10 μM in the incubation mixtures. Inhibitors (10 μM) were incubated at 37 °C for 10 min with the NADPH-generating system prior to addition of 10 μM AAI, and then incubated for an additional 20 min at 37 °C. AAIa formation was analyzed by HPLC as described above."}, "[2]": {"system": "CYP enzymes of liver microsomes that oxidise (demethylate) AAI to AAIa", "experiment": "Effect of CYP inhibitors on AAI oxidation to AAIa by rat liver microsomes", "format": "in vitro ADME", "conditions": "male, Wistar, pH 7.4, probe AAI (10 μM), inhibitor 10 μM equimolar to AAI (10 μM), 0.1 nmol CYP, mean ± SD, n = 3, NI = no inhibition, read-out: AAIa Formation (% of Control without Inhibitor) Rat Microsomes", "method": "Microsomal fractions were prepared from livers of ten male Wistar rats (AnLab, Prague, Czech Republic) by differential centrifugation as described previously.\nas §1, §2"}, "CYP2E1": {"system": "CYP2E1", "experiment": "Contribution of CYP to AAI oxidation in human liver", "format": "in vitro ADME", "method": "(§3) In order to calculate the contributions of individual CYPs to AAI oxidation in human and rat livers, we utilized the velocities of AAI oxidation to AAIa by the Supersomal CYP enzyme systems containing cytochrome b5 (Figure 2) in the combination with the data on the expression levels of CYPs in human and rat livers. The contributions of these enzymes were calculated by relative activity factor because the activities of CYP in Supersomes™ should be considered in addition to the relative contents of CYPs in the livers. Therefore, the contributions of each CYP that oxidizes AAI in livers were calculated by dividing of the relative activity of each of such CYPs oxidizing AAI [r.a.cypi] (rate of AAI oxidation multiplied by amounts of this CYP in tissues examined), by the total relative activities (∑[r.a.cypi]) of all CYPs oxidizing this substrate. Of human liver CYPs, CYP3A4 is the major enzyme present in this human organ (~30% of the CYP hepatic complement), followed by CYP2C9 and 1A2 (~15% and ~13%, respectively), while CYP2C19, 2E1 2A6, 2D6, 2C8, and 3A5 are present in human liver in levels of the range of ~8.5%–~2.5% of the liver CYPs (see [58] for an overview). CYPs of the 2C subfamily (CYP2C6, 2C11, 2C12, and 2C13) are the major enzymes expressed in rat livers accounting of ~55% of the CYP complement. Of the CYP2C complement, ~50% and ~20% correspond to CYP2C11 and 2C6, respectively. Of the other CYPs, CYP2E1, 3A, 2D, 2A, 2B, and 1A enzymes are also present in rat livers, expressed in levels of ~15%, ~10%, ~7%, ~6%, ~5%, and ~2%, respectively."}, "CYP1A1 [3]": {"system": "CYP1A1", "experiment": "Contribution of CYP to AAI oxidation in human liver", "format": "in vitro ADME", "conditions": "from Supersomal velocities with cytochrome b5 and CYP expression levels", "method": "as §3"}, "CYP2C19": {"system": "CYP2C19", "experiment": "Contribution of CYP to AAI oxidation in human liver", "format": "in vitro ADME", "method": "as §3"}, "CYP2D6": {"system": "CYP2D6", "experiment": "Contribution of CYP to AAI oxidation in human liver", "format": "in vitro ADME", "method": "as §3"}, "CYP1B1": {"system": "CYP1B1", "experiment": "Contribution of CYP to AAI oxidation in human liver", "format": "in vitro ADME", "method": "as §3"}, "CYP2C8": {"system": "CYP2C8", "experiment": "Contribution of CYP to AAI oxidation in human liver", "format": "in vitro ADME", "method": "as §3"}, "CYP1A2": {"system": "CYP1A2", "experiment": "Contribution of CYP to AAI oxidation in human liver", "format": "in vitro ADME", "conditions": "from Supersomal velocities with cytochrome b5 and CYP expression levels", "method": "as §3"}, "CYP3A4": {"system": "CYP3A4", "experiment": "Contribution of CYP to AAI oxidation in human liver", "format": "in vitro ADME", "conditions": "from Supersomal velocities with cytochrome b5 and CYP expression levels", "method": "as §3"}, "CYP2C9 [4]": {"system": "CYP2C9", "experiment": "Contribution of CYP to AAI oxidation in human liver", "format": "in vitro ADME", "conditions": "from Supersomal velocities with cytochrome b5 and CYP expression levels", "method": "as §3"}, "CYP2B6": {"system": "CYP2B6", "experiment": "Contribution of CYP to AAI oxidation in human liver", "format": "in vitro ADME", "method": "as §3"}, "CYP3A5": {"system": "CYP3A5", "experiment": "Contribution of CYP to AAI oxidation in human liver", "format": "in vitro ADME", "method": "as §3"}, "CYP2C9 [5]": {"system": "CYP2C9", "conditions": "CYP2C9, with vs without cytochrome b5; cited from earlier work"}, "CYP2C6": {"system": "CYP2C6", "experiment": "Contribution of CYP to AAI oxidation in rat liver", "format": "in vitro ADME", "method": "as §3"}, "CYP1A1 [6]": {"system": "CYP1A1", "experiment": "Contribution of CYP to AAI oxidation in rat liver", "format": "in vitro ADME", "method": "as §3"}, "CYP1A subfamily": {"system": "CYP1A subfamily", "experiment": "Contribution of CYP to AAI oxidation in rat liver", "format": "in vitro ADME", "method": "as §3"}, "CYP2C subfamily": {"system": "CYP2C subfamily", "experiment": "Contribution of CYP to AAI oxidation in rat liver", "format": "in vitro ADME", "method": "as §3"}, "CYP2C11": {"system": "CYP2C11", "experiment": "Contribution of CYP to AAI oxidation in rat liver", "format": "in vitro ADME", "method": "as §3"}, "human CYP1A2": {"system": "human CYP1A2", "conditions": "CYP1A2, with vs without cytochrome b5; cited from earlier work"}},
  "data": [
    {"smiles": "O=c1cc(-c2ccccc2)oc2c1ccc1ccccc12", "note": "[α-Napththoflavone, α-Naphthoflavone]", "values": [
      {"measurement": "activity at 20 min, 10 μM", "setting": "[1]", "result": "89 ± 5", "unit": "%"},
      {"measurement": "activity at 20 min, 10 μM", "setting": "[2]", "result": "85 ± 5", "unit": "%"}
    ]},
    {"smiles": "C=C[C@H]1C[N@@]2CC[C@H]1C[C@@H]2[C@@H](O)c1ccnc2ccc(OC)cc12", "note": "[Quinidine, quinidine]", "values": [
      {"measurement": "activity at 20 min, 10 μM", "setting": "[1]", "result": "> 100", "unit": "%"},
      {"measurement": "activity at 20 min, 10 μM", "setting": "[2]", "result": "> 100", "unit": "%"}
    ]},
    {"smiles": "Cc1nc2c([nH]1)c(=O)n(C)c(=O)n2Cc1ccco1", "note": "[Furafylline, furafylline]", "values": [
      {"measurement": "activity at 20 min, 10 μM", "setting": "[1]", "result": "75 ± 4", "unit": "%"},
      {"measurement": "activity at 20 min, 10 μM", "setting": "[2]", "result": "84 ± 5", "unit": "%"}
    ]},
    {"smiles": "COc1cccc2c1cc([N+](=O)[O-])c1c(C(=O)O)cc3c(c12)OCO3", "note": "[AAI, aristolochic acid I]", "values": [
      {"measurement": "Contribution to AAI oxidation to AAIa", "setting": "CYP2E1", "result": "~ 1.1%"},
      {"measurement": "Contribution to AAI oxidation to AAIa", "setting": "CYP1A1 [3]", "result": "~ 8.3%"},
      {"measurement": "Contribution to AAI oxidation to AAIa", "setting": "CYP2C19", "result": "~ 0.6%"},
      {"measurement": "Contribution to AAI oxidation to AAIa", "setting": "CYP2D6", "result": "negligible"},
      {"measurement": "Contribution to AAI oxidation to AAIa", "setting": "CYP1B1", "result": "negligible"},
      {"measurement": "Contribution to AAI oxidation to AAIa", "setting": "CYP2C8", "result": "~ 1.0%"},
      {"measurement": "Contribution to AAI oxidation to AAIa", "setting": "CYP1A2", "result": "~ 47.5%"},
      {"measurement": "Contribution to AAI oxidation to AAIa", "setting": "CYP3A4", "result": "~ 10.5%"},
      {"measurement": "Contribution to AAI oxidation to AAIa", "setting": "CYP2C9 [4]", "result": "~ 15.8%"},
      {"measurement": "Contribution to AAI oxidation to AAIa", "setting": "CYP2B6", "result": "negligible"},
      {"measurement": "Contribution to AAI oxidation to AAIa", "setting": "CYP3A5", "result": "negligible"},
      {"measurement": "Increase in AAIa formation by cytochrome b5", "setting": "CYP2C9 [5]", "result": "not significant"},
      {"measurement": "Contribution to AAI oxidation to AAIa", "setting": "CYP2C6", "result": "~ 17%"},
      {"measurement": "Contribution to AAI oxidation to AAIa", "setting": "CYP1A1 [6]", "result": "~ 1.7%"},
      {"measurement": "Contribution to AAI oxidation to AAIa", "setting": "CYP1A subfamily", "result": "~ 17%"},
      {"measurement": "Contribution to AAI oxidation to AAIa", "setting": "CYP2C subfamily", "result": "~ 83%"},
      {"measurement": "Contribution to AAI oxidation to AAIa", "setting": "CYP2C11", "result": "~ 42%"},
      {"measurement": "Increase in AAIa formation by cytochrome b5", "setting": "human CYP1A2", "result": "not significant"}
    ]},
    {"smiles": "CCN(CC)C(=S)S", "note": "[DDTC, diethyldithiocarbamate]", "values": [
      {"measurement": "activity at 20 min, 10 μM", "setting": "[1]", "result": "96 ± 5", "unit": "%"},
      {"measurement": "activity at 20 min, 10 μM", "setting": "[2]", "result": "52 ± 4", "unit": "%"}
    ]},
    {"smiles": "Nc1ccc(S(=O)(=O)Nc2ccnn2-c2ccccc2)cc1", "note": "[Sulfaphenazole, sulfaphenazole]", "values": [
      {"measurement": "activity at 20 min, 10 μM", "setting": "[1]", "result": "> 100", "unit": "%"},
      {"measurement": "activity at 20 min, 10 μM", "setting": "[2]", "result": "68 ± 3", "unit": "%"}
    ]}
  ]
}
